# Reference: PMC8617944, “Preclinical Pharmacokinetics and Acute Toxicity in Rats of 5-{[(2E)-3-Bromo-3-carboxyprop-2-enoyl]amino}-2-hydroxybenzoic Acid: A Novel 5-Aminosalicylic Acid Derivative with Potent Anti-Inflammatory Activity” (Molecules, 2021)
# Entries after “also recorded” stand apart in the source; their conditions may differ. Like-named read-outs stand apart in the source and are kept apart here.
# Key:
# [1] = Stability of C1 in rat plasma (RP-HPLC); format: in vitro ADME; conditions: for Difference at 12 h (%) / Difference at 24 h (%) / Difference at 48 h (%): rat plasma
# Experimental: C1 was quantified in a liquid chromatograph Agilent 1260 Infinity Series (Agilent Technologies, Palo Alto, CA, USA) equipped with a quaternary pump delivery system (G1311B), robotic autosampler (G1316A), column thermostat (G1316A), and a multi-wavelength UV detector (G1315C). The results were analyzed with OpenLab CDS EZChrom. Separation was performed on a Zorbax SB-Phenyl column (5 µm, 4.6 × 150 mm, Agilent Technologies, Palo Alto, CA, USA) and UV detection was carried out at 305 nm. The column temperature was maintained at 25 °C, and the injection volume was 10 μL. The mobile phase consisted of a mixture of (A) acetonitrile, (B) methanol, and (C) water at a ratio of 50% A, 10% B, and 40% C, at a flow rate of 1.0 mL/min. The total analysis time for each sample was 5.0 min when using an isocratic elution. It was not necessary to equilibrate between each injection.
# In addition, the potential interference of heparin, ketamine, and xylazine was investigated. Method specificity was assessed by the values of peak identity and purity of C1. A peak purity angle that is less than the peak threshold angle is an indication of spectral homogeneity or purity of C1. Stability of C1 in plasma was evaluated in triplicate using the quality control samples at four concentrations. Samples were stored at 25 °C for 12, 24, and 48 h (short-term stability), and three freeze-thaw cycles at −20 to +25 °C for 12, 24, and 48 h. […] The concentration of C1 after each storage period was compared to the initial concentration, which was determined for freshly prepared samples [57, 59].
# [2] = design: method as in ref 32 = [32]; doi:10.1016/j.arabjc.2016.12.026; 32. Cabrera Pérez L.C. Gutiérrez Sánchez M. Mendieta Wejebe J.E. Hernández Rodríguez M. Fragoso Vázquez M.J. Salazar J.R. Correa Basurto J. Padilla Martínez I.I. Rosales Hernández M.C. Novel 5-aminosa; conditions: Osiris Property Server Explorer; cited from earlier work
# [3] = design: method as in ref 32, 33 = [32]; doi:10.1016/j.arabjc.2016.12.026; 32. Cabrera Pérez L.C. Gutiérrez Sánchez M. Mendieta Wejebe J.E. Hernández Rodríguez M. Fragoso Vázquez M.J. Salazar J.R. Correa Basurto J. Padilla Martínez I.I. Rosales Hernández M.C. Novel 5-aminosa || [33]; 33. Correa Basurto J. Rosales Hernández M.C. Mendieta Wejebe J.E. Trujillo Ferrara J.G. Padilla Martínez I.I. Ramírez Durán L.A. Alemán González Duhart D. Síntesis de un derivado del ácido 5-aminosali; conditions: 0.408 mM; cited from earlier work
# [4] = Blood/plasma partitioning (BP ratio); format: in vitro ADME, rats; conditions: rat whole blood, 37 °C, 4 h
# Experimental: Appropriate amounts of C1 stock solution at 10 mg/mL were spiked into whole blood to obtain samples (prepared in triplicate) at a final concentration of 1, 5, and 10 and 20 μg/mL (in a final volume of 600 μL), to be incubated at 37 °C for 4 h. Plasma was harvested from blood samples by centrifuging at 8000 rpm for 15 min, and then the concentration of C1 was established using the RP-HPLC method and interpolating the response area into a standard curve prepared with C1 and blank plasma. The BP ratio was calculated by dividing 5 and 10 µg/mL, respectively, by the concentration found in plasma separated from blood samples. The concentration of C1 in blood cells is assumed to be equal to its unbound concentration in plasma.
# [5] = Acute toxicity, up-and-down OECD method (Guideline 425); format: in vivo; conditions: both sexes, rat, in vivo, Wistar rats, read-out: Median lethal dose (LD50)
# Experimental: (§1) For all experiments, rats were allowed to acclimatize to the lab conditions during one week prior to undergoing assays. For the pharmacokinetic studies, animals were randomly divided into three groups (n = 6, body weight 300 ± 20 g). Eight female rats were employed in the up-and-down acute toxicity procedure. The animals were fasted for 8 h before and 4 h after drug administration but always given free access to water.
# (§2) If the first animal dies, the second animal is given a lower dose. A dose progression factor of 3.2 can be used. […] The animals were monitored for 14 days post-dosing and then sacrificed. The LD50 values were calculated with AOTStatPgm.
# Wistar rats = assay: as above; format: in vivo
# Experimental: as §1, §2
# [6] = refrigeration (4 °C), 0.1 µg/mL
# [7] = refrigeration (4 °C), 0.5 µg/mL
# [8] = refrigeration (4 °C), 100 µg/mL
# [9] = room temperature (25 °C), 0.1 µg/mL, difference to nominal concentration
# [10] = room temperature (25 °C), 0.5 µg/mL
# [11] = room temperature (25 °C), 10 µg/mL
# [12] = room temperature (25 °C), 100 µg/mL
# [13] = three freeze–thaw cycles (−20 to +25 °C), 0.1 µg/mL
# [14] = three freeze–thaw cycles (−20 to +25 °C), 0.5 µg/mL
# [15] = three freeze–thaw cycles (−20 to +25 °C), 10 µg/mL
# [16] = three freeze–thaw cycles (−20 to +25 °C), 100 µg/mL
smiles,measurement,setting,value
"O=C(/C=C(/Br)C(=O)O)Nc1ccc(O)c(C(=O)O)c1 [Compound C1, 5-{[(2E)-3-bromo-3-carboxyprop-2-enoyl]amino}-2-hydroxybenzoic acid]",stability in rat plasma,[1]; 4 °C,up to 72 h at 4 °C
same,stability in rat plasma,[1]; 25 °C,stable in rat plasma stored up to 48 h at 25 °C
same,Difference at 12 h (%),[1]; [6],5.1%
same,Difference at 24 h (%),[1]; [6],14.0%
same,Difference at 48 h (%),[1]; [6],4.3%
same,Difference at 12 h (%),[1]; [7],4.0%
same,Difference at 24 h (%),[1]; [7],3.6%
same,Difference at 48 h (%),[1]; [7],5.3%
same,Difference at 12 h (%),"[1]; refrigeration (4 °C), 10 µg/mL",10.1%
same,Difference at 24 h (%),"[1]; refrigeration (4 °C), 10 µg/mL",13.1%
same,Difference at 48 h (%),"[1]; refrigeration (4 °C), 10 µg/mL",9.3%
same,Difference at 12 h (%),[1]; [8],1.2%
same,Difference at 24 h (%),[1]; [8],0.2%
same,Difference at 48 h (%),[1]; [8],5.2%
same,Difference at 12 h (%),[1]; [9],10.7%
same,Difference at 24 h (%),[1]; [9],3.2%
same,Difference at 48 h (%),[1]; [9],3.8%
same,Difference at 12 h (%),[1]; [10],3.2%
same,Difference at 24 h (%),[1]; [10],7.8%
same,Difference at 48 h (%),[1]; [10],4.1%
same,Difference at 12 h (%),[1]; [11],9.5%
same,Difference at 24 h (%),[1]; [11],6.5%
same,Difference at 48 h (%),[1]; [11],3.7%
same,Difference at 12 h (%),[1]; [12],0.5%
same,Difference at 24 h (%),[1]; [12],6.5%
same,Difference at 48 h (%),[1]; [12],5.4%
same,Difference at 12 h (%),[1]; [13],5.1%
same,Difference at 24 h (%),[1]; [13],1.76%
same,Difference at 48 h (%),[1]; [13],3.4%
same,Difference at 12 h (%),[1]; [14],0.1%
same,Difference at 24 h (%),[1]; [14],0.3%
same,Difference at 48 h (%),[1]; [14],1.0%
same,Difference at 12 h (%),[1]; [15],0.7%
same,Difference at 24 h (%),[1]; [15],1.2%
same,Difference at 48 h (%),[1]; [15],3.2%
same,Difference at 12 h (%),[1]; [16],0.1%
same,Difference at 24 h (%),[1]; [16],0.6%
same,Difference at 48 h (%),[1]; [16],2.0%
same,stability in rat plasma,[1]; three freeze–thaw cycles,stable before the three freeze–thaw cycles
same,predicted toxicity index,[2],low toxicity index
same,reduction of the free radical DPPH,[3],about 90%
same,BP Ratio ± SD,[4]; 5 µg/mL,0.54 ± 0.02
same,BP Ratio ± SD,[4]; 10 µg/mL,0.40 ± 0.01
same,LD50 at 14 days,[5]; ip,> 1100 mg/kg
same,LD50 at 14 days,[5]; po,> 2000 mg/kg
same,GHS category,Wistar rats; i.p. route,4
same,macroscopic changes at necropsy,"Wistar rats; liver, small intestine, colon, heart, spleen, stomach, kidneys",no macroscopic changes were observed; also recorded: non-macroscopic changes
same,GHS category,Wistar rats; p.o. route,5
same,signs of toxicity,"Wistar rats; p.o. route, 14 days",did not show any signs of apparent toxicity
